“And” between values parts separate entries of the source, which are not always exact repeats. Identical values can stand only once.
Target: T1, bovine serum albumin (BSA) (Bos taurus, UniProt P02769)
T1 construct: BSA, molecular weight of 66 kDa, 583 residues; purchased Sigma Aldrich Chemicals (Taufkirchen, Germany)
Assay: High hydrostatic pressure fluorescence titration of ANS with BSA (1-2000 bar)
Type: binding
Conditions: for Binding volume ΔVb1 (first binding site): from slope of lnKb1 vs p (1-2000 bar); for Binding volume ΔVb1 (first binding site) / Binding volume ΔVb2 (second binding site) / Binding volume ΔVb: per mol of protein; for Binding volume ΔVb2 (second binding site): from slope of lnKb2 vs p (1-2000 bar); for Binding volume ΔVb: from slope of lnKb vs p (1-2000 bar)
From the text: The extent of complex formation between ANS and BSA was followed by means of steady-state fluorescence spectroscopy using a K2 fluorometer from ISS, Inc. (Champaign, IL, USA). The binding isotherms were obtained by recording ANS emission spectra by exciting the solutions at 350 nm and recording the emission intensities in the range 400–550 nm. The width slits of the excitation and emission monochromators were both set to 8 nm. Briefly, a series of solutions with a fixed concentration of ANS at ~5 µM were prepared, and the concentration of BSA was varied between 0 and ~40 µM. Then estimation of the binding constants (Kb) was performed by using a plot of ΔF = F − F0 (where F is the fluorescence intensity of ANS at the maximum in the presence of BSA, and F0 is the intensity of ANS in the absence of BSA) as a function of total BSA concentration and fitting the experimental data according to an equivalent and independent binding sites model or to two classes of non-equivalent and independent binding-site models, as described in detail in Reference.
For the pressure dependent measurements, the high-pressure cell system from ISS and quartz cuvettes were used. The pressure was controlled by means of a manual pump, and water was used as pressurizing fluid. A pressure range from 1 to 2000 bar was explored. The ANS and BSA solutions were mixed, vortexed, and then filled into the sample cell, which was sealed with DuraSeal^TM laboratory stretch film and placed into the high-pressure vessel. The stretch film allowed for the pressure transmission in the sample cuvette.
In the next step, we explored the impact of high hydrostatic pressure (HHP) on the binding of ANS to BSA in the presence of the three salts and in the temperature range between 5 and 25 °C. To this end, we performed the same titration experiments following the complex formation by means of HHP fluorescence spectroscopy.
From the pressure dependence of the Kb values, the volume change upon binding, the protein–ligand binding volume ΔVb, can be determined (for an in-depth discussion of pressure effects on ligand binding, please refer to Reference and references therein):(1) [∂lnKb/∂p]T=−ΔVb/RT
Here, [∂lnKb/∂p]T is the derivative of the logarithm of the binding constant (Kb) with respect to pressure (p) at constant temperature (T). R is the universal gas constant. ΔVb is the binding volume defined as the difference between the partial molar volume of the complex (PL, where P is the protein and L the ligand) and the sum of the partial molar volumes of the uncomplexed state (P+L). Thus, the binding volume can be directly estimated by taking the slope of a plot of lnKb vs. p, assuming that the volume change is independent of pressure in the (here rather small) pressure range covered.

T1 sequence (P02769 25-607): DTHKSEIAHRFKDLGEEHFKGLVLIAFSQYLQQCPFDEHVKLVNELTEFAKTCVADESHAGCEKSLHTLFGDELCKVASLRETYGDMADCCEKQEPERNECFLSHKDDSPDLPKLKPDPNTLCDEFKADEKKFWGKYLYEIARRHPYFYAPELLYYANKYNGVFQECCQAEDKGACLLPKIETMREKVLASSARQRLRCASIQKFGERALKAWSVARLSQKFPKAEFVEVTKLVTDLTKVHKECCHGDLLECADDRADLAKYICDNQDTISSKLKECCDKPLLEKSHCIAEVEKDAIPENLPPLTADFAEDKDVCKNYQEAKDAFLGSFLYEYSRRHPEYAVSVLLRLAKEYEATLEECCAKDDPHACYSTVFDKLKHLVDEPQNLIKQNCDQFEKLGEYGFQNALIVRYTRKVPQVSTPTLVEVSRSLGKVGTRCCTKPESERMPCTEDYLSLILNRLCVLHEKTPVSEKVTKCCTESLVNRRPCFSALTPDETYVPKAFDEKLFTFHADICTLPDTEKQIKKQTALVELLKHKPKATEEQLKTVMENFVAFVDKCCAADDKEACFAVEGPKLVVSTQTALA

O=S(=O)(O)c1cccc2cccc(Nc3ccccc3)c12 [ANS, 8-anilinonaphthalene-1-sulfonic acid]
Binding volume ΔVb1 (first binding site) (250 mM Mg(ClO4)2, 5 °C): -7.4 mL/mol and -7.4 ± 2.4 mL/mol
Binding volume ΔVb2 (second binding site) (250 mM Mg(ClO4)2, 5 °C): -12.9 mL/mol and -12.9 ± 3.2 mL/mol
Binding volume ΔVb1 (first binding site) (250 mM Mg(ClO4)2, 15 °C): -6.0 ± 1.0 mL/mol
Binding volume ΔVb2 (second binding site) (250 mM Mg(ClO4)2, 15 °C): -5.0 ± 1.0 mL/mol
Binding volume ΔVb1 (first binding site) (250 mM Mg(ClO4)2, 25 °C): 6.0 ± 2.0 mL/mol
Binding volume ΔVb2 (second binding site) (250 mM Mg(ClO4)2, 25 °C): 2.0 ± 1.0 mL/mol
Increase of Kb with pressure (factor) (250 mM MgCl2, 5 °C, up to 2 kbar): about a factor of two
Binding volume ΔVb (250 mM MgCl2, 15 °C): -2.5 ± 0.4 mL/mol
Binding volume ΔVb (250 mM MgCl2, 25 °C): -1.0 ± 1.0 mL/mol
Binding volume ΔVb (250 mM MgSO4, 5 °C): 2.0 ± 1.0 mL/mol
Binding volume ΔVb (250 mM MgSO4, 15 °C): -2.0 ± 1.0 mL/mol
Binding volume ΔVb (250 mM MgSO4, 25 °C): 3.6 ± 0.5 mL/mol
Kd (Binding constant Kb1, 250 mM Mg(ClO4)2, 5 °C, 1 bar): 5260 nM
Kd (Binding constant Kb1, 250 mM Mg(ClO4)2, 5 °C, 500 bar): 3130 nM
Kd (Binding constant Kb1, 250 mM Mg(ClO4)2, 5 °C, 1000 bar): 2940 nM
Kd (Binding constant Kb1, 250 mM Mg(ClO4)2, 5 °C, 1500 bar): 2860 nM
Kd (Binding constant Kb1, 250 mM Mg(ClO4)2, 5 °C, 2000 bar): 2560 nM
Kd (Binding constant Kb1, 250 mM Mg(ClO4)2, 15 °C, 1 bar): 6670 nM
Kd (Binding constant Kb1, 250 mM Mg(ClO4)2, 15 °C, 500 bar): 7140 nM
Kd (Binding constant Kb1, 250 mM Mg(ClO4)2, 15 °C, 1000 bar): 5260 nM
Kd (Binding constant Kb1, 250 mM Mg(ClO4)2, 15 °C, 1500 bar): 4760 nM
Kd (Binding constant Kb1, 250 mM Mg(ClO4)2, 15 °C, 2000 bar): 3850 nM
Kd (Binding constant Kb1, 250 mM Mg(ClO4)2, 25 °C, 1 bar): 1690 nM
Kd (Binding constant Kb1, 250 mM Mg(ClO4)2, 25 °C, 500 bar): 1690 nM
Kd (Binding constant Kb1, 250 mM Mg(ClO4)2, 25 °C, 1000 bar): 2630 nM
Kd (Binding constant Kb1, 250 mM Mg(ClO4)2, 25 °C, 1500 bar): 2940 nM
Kd (Binding constant Kb1, 250 mM Mg(ClO4)2, 25 °C, 2000 bar): 2500 nM
Kd (Binding constant Kb1, 250 mM MgCl2, 5 °C, 1 bar): 1000 ± 100 nM
Kd (Binding constant Kb1, 250 mM MgCl2, 5 °C, 500 bar): 1000 ± 200 nM
Kd (Binding constant Kb1, 250 mM MgCl2, 5 °C, 1000 bar): 833 nM
Kd (Binding constant Kb1, 250 mM MgCl2, 5 °C, 1500 bar): 556 nM
Kd (Binding constant Kb1, 250 mM MgCl2, 5 °C, 2000 bar): 526 nM
Kd (Binding constant Kb1, 250 mM MgCl2, 15 °C, 1 bar): 2780 nM
Kd (Binding constant Kb1, 250 mM MgCl2, 15 °C, 500 bar): 2500 nM
Kd (Binding constant Kb1, 250 mM MgCl2, 15 °C, 1000 bar): 2440 nM
Kd (Binding constant Kb1, 250 mM MgCl2, 15 °C, 1500 bar): 2330 nM
Kd (Binding constant Kb1, 250 mM MgCl2, 15 °C, 2000 bar): 2220 nM
Kd (Binding constant Kb1, 250 mM MgCl2, 25 °C, 1 bar): 204 nM
Kd (Binding constant Kb1, 250 mM MgCl2, 25 °C, 500 bar): 233 nM
Kd (Binding constant Kb1, 250 mM MgCl2, 25 °C, 1000 bar): 222 nM
Kd (Binding constant Kb1, 250 mM MgCl2, 25 °C, 1500 bar): 204 nM
Kd (Binding constant Kb1, 250 mM MgCl2, 25 °C, 2000 bar): 192 nM
Kd (Binding constant Kb1, 250 mM MgSO4, 5 °C, 1 bar): 1610 nM
Kd (Binding constant Kb1, 250 mM MgSO4, 5 °C, 500 bar): 2080 nM
Kd (Binding constant Kb1, 250 mM MgSO4, 5 °C, 1000 bar): 2130 nM
Kd (Binding constant Kb1, 250 mM MgSO4, 5 °C, 1500 bar): 1820 nM
Kd (Binding constant Kb1, 250 mM MgSO4, 5 °C, 2000 bar): 2270 nM
Kd (Binding constant Kb1, 250 mM MgSO4, 15 °C, 1 bar): 2560 nM
Kd (Binding constant Kb1, 250 mM MgSO4, 15 °C, 500 bar): 2500 nM
Kd (Binding constant Kb1, 250 mM MgSO4, 15 °C, 1000 bar): 2380 nM
Kd (Binding constant Kb1, 250 mM MgSO4, 15 °C, 1500 bar): 2330 nM
Kd (Binding constant Kb1, 250 mM MgSO4, 15 °C, 2000 bar): 2220 nM
Kd (Binding constant Kb1, 250 mM MgSO4, 25 °C, 1 bar): 345 nM
Kd (Binding constant Kb1, 250 mM MgSO4, 25 °C, 500 bar): 345 nM
Kd (Binding constant Kb1, 250 mM MgSO4, 25 °C, 1000 bar): 370 nM
Kd (Binding constant Kb1, 250 mM MgSO4, 25 °C, 1500 bar): 417 nM
Kd (Binding constant Kb1, 250 mM MgSO4, 25 °C, 2000 bar): 455 nM
Kd (Binding constant Kb2, 250 mM Mg(ClO4)2, 5 °C, 1 bar): 5260 nM
Kd (Binding constant Kb2, 250 mM Mg(ClO4)2, 5 °C, 500 bar): 2500 nM
Kd (Binding constant Kb2, 250 mM Mg(ClO4)2, 5 °C, 1000 bar): 2940 nM
Kd (Binding constant Kb2, 250 mM Mg(ClO4)2, 5 °C, 1500 bar): 1920 nM
Kd (Binding constant Kb2, 250 mM Mg(ClO4)2, 5 °C, 2000 bar): 1520 nM
Kd (Binding constant Kb2, 250 mM Mg(ClO4)2, 15 °C, 1 bar): 7690 nM
Kd (Binding constant Kb2, 250 mM Mg(ClO4)2, 15 °C, 500 bar): 6670 nM
Kd (Binding constant Kb2, 250 mM Mg(ClO4)2, 15 °C, 1000 bar): 5260 nM
Kd (Binding constant Kb2, 250 mM Mg(ClO4)2, 15 °C, 1500 bar): 4760 nM
Kd (Binding constant Kb2, 250 mM Mg(ClO4)2, 15 °C, 2000 bar): 4170 nM
Kd (Binding constant Kb2, 250 mM Mg(ClO4)2, 25 °C, 1 bar): 833 nM
Kd (Binding constant Kb2, 250 mM Mg(ClO4)2, 25 °C, 500 bar): 909 nM
Kd (Binding constant Kb2, 250 mM Mg(ClO4)2, 25 °C, 1000 bar): 833 nM
Kd (Binding constant Kb2, 250 mM Mg(ClO4)2, 25 °C, 1500 bar): 833 nM
Kd (Binding constant Kb2, 250 mM Mg(ClO4)2, 25 °C, 2000 bar): 1120 nM

Source: paper PMC8301423, “The Effects of Temperature and Pressure on Protein-Ligand Binding in the Presence of Mars-Relevant Salts” (Biology, 2021)
